The text below walks through data of ChEMBL document CHEMBL5696442, “Discovery of type II inhibitors of TGFβ-activated kinase 1 (TAK1) and mitogen-activated protein kinase kinase kinase kinase 2 (MAP4K2)” (J Med Chem, 2015).

Structures are written as SMILES.

The target in test [1] is eIF-2-alpha kinase GCN2 (Homo sapiens) (UniProt Q9P2K8). In words: Inhibition of GCN2 domain2 Lys2 labeling site in human A-375 cells at 5 uM by KiNativ Profiling analysis relative to control. The class given is cell-based.
eIF-2-alpha kinase GCN2 (Homo sapiens), sequence (Q9P2K8 whole entry, the tested form may be a part): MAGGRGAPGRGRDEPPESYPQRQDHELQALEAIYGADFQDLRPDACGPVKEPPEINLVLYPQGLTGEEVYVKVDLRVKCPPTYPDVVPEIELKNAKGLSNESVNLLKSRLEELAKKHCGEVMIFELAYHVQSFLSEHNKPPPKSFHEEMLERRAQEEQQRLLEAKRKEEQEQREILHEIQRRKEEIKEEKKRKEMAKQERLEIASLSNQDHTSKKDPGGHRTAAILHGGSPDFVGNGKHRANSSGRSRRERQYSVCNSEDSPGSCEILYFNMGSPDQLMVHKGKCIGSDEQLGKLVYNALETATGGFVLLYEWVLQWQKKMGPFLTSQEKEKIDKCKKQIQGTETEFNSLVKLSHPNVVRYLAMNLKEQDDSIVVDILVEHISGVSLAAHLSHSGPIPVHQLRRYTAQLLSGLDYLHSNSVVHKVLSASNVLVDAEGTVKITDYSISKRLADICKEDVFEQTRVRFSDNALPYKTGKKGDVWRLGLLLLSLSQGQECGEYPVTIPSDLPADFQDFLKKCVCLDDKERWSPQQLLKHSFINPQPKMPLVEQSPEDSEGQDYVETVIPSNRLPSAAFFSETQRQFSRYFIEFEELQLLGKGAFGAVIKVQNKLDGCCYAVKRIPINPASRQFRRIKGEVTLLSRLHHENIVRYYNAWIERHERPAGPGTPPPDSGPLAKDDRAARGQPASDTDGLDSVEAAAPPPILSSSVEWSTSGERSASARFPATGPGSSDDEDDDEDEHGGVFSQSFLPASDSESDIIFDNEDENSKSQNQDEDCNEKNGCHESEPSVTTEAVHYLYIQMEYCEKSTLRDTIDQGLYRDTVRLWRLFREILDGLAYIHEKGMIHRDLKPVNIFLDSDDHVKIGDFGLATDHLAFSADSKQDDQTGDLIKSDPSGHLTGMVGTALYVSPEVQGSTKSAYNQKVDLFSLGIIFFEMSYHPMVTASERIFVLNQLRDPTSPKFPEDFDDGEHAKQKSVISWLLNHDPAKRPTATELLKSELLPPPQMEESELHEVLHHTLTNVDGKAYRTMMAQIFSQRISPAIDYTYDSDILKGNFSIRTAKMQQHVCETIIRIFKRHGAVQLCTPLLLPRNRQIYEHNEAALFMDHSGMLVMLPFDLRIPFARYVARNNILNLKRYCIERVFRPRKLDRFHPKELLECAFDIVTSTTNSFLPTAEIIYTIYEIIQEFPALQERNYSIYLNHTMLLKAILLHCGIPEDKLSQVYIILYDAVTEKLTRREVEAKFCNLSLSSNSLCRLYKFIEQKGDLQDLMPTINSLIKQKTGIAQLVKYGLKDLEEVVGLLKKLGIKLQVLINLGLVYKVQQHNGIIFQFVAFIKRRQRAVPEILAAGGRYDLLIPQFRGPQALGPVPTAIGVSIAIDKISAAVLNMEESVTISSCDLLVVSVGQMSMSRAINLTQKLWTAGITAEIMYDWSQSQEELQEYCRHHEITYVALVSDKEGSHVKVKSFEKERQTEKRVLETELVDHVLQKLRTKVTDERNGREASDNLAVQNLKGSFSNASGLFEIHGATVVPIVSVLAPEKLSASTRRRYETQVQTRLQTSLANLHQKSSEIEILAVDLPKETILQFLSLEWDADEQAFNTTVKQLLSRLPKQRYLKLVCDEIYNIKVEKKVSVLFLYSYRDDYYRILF
Test [2] has as its target Cyclin-dependent kinase 16 (Homo sapiens) (UniProt Q00536). In words: Inhibition of PCTAIRE1 Lys1 labeling site in human A-375 cells at 5 uM by KiNativ Profiling analysis relative to control. The class given is cell-based.
Test [3] concerns the target Interferon-induced, double-stranded RNA-activated protein kinase (Homo sapiens) (UniProt P19525). The test can be described thus: Inhibition of PKR Lys2 labeling site in human A-375 cells at 5 uM by KiNativ Profiling analysis relative to control. The class given is cell-based.
Test [4] concerns the target Mitogen-activated protein kinase kinase kinase 11 (Homo sapiens) (UniProt Q16584). In words: Inhibition of MLK3 Lys2 labeling site in human A-375 cells at 0.5 uM by KiNativ Profiling analysis relative to control. It is filed as cell-based.
In test [5] the target is T1, Ephrin type-B receptor 4 (Homo sapiens) (UniProt P54760).
T1 sequence (whole entry): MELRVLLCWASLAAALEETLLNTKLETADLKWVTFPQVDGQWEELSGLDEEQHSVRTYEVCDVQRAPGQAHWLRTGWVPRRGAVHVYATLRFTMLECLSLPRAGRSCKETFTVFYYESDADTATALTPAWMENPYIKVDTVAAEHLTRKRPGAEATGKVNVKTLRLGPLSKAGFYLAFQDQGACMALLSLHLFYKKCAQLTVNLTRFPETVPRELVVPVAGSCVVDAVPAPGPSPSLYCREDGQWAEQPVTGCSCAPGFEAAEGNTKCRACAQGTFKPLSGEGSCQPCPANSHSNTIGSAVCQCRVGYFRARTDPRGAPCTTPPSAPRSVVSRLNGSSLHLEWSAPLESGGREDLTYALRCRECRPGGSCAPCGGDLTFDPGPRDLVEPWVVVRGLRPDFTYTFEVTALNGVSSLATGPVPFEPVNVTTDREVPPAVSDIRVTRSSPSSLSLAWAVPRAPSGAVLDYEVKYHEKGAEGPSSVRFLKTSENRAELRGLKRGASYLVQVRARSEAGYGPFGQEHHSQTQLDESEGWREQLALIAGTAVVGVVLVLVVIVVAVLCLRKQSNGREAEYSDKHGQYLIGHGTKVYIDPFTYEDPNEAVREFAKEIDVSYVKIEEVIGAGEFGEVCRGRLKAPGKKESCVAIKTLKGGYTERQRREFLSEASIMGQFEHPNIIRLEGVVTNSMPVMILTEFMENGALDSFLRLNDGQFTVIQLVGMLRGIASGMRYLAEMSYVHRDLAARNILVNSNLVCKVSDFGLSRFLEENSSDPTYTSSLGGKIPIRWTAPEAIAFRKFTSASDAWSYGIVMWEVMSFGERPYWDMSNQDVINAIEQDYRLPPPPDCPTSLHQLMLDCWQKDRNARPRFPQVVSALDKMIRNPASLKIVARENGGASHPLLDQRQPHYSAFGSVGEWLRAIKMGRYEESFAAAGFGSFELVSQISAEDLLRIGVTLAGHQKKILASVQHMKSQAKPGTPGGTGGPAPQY
The test can be described thus: Inhibition of EphB4 ACT labeling site in human A-375 cells at 0.05 uM by KiNativ Profiling analysis relative to control. The class given is cell-based.

Test [6] addresses 3-phosphoinositide-dependent protein kinase 1 (Homo sapiens) (UniProt O15530). The test can be described thus: Inhibition of PDK1 Protein Kinase Domain in human A-375 cells at 0.5 uM by KiNativ Profiling analysis relative to control.
The target of test [7] is T2, Mitogen-activated protein kinase kinase kinase kinase 2 (Homo sapiens) (UniProt Q12851).
T2 sequence (whole entry): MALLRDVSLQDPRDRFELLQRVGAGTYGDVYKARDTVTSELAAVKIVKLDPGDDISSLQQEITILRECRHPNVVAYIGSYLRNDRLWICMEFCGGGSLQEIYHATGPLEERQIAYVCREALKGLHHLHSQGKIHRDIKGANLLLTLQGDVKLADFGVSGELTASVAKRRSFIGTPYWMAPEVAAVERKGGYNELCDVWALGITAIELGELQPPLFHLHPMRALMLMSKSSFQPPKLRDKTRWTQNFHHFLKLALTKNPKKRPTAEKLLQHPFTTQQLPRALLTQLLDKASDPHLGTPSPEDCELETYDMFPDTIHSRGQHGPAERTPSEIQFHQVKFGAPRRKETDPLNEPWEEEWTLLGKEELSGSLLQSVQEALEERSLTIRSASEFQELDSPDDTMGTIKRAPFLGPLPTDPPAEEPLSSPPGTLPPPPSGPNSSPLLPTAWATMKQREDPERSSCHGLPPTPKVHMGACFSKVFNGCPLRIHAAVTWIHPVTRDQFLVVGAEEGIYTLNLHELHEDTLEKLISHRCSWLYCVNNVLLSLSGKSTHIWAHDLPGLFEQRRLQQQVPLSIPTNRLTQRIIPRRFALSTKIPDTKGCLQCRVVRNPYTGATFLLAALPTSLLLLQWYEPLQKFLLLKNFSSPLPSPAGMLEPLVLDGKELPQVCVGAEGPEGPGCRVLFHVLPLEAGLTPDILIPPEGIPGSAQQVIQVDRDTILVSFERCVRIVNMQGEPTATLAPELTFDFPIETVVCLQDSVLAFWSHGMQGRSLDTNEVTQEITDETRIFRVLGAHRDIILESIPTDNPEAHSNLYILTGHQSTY
The test can be described thus: Inhibition of MAP4K2 Lys1 labeling site in human Huh-7 cell lysate at 1 uM by KiNativ Profiling analysis relative to control. It is filed as subcellular.

Test [8] concerns the target Mitogen-activated protein kinase kinase kinase 20 (Homo sapiens, UniProt Q9NYL2). In words: Inhibition of ZAK Lys1 labeling site in human Huh-7 cell lysate at 1 uM by KiNativ Profiling analysis relative to control. The class given is subcellular.

Mitogen-activated protein kinase kinase kinase 11 (Homo sapiens), sequence (Q16584 whole entry, looked up): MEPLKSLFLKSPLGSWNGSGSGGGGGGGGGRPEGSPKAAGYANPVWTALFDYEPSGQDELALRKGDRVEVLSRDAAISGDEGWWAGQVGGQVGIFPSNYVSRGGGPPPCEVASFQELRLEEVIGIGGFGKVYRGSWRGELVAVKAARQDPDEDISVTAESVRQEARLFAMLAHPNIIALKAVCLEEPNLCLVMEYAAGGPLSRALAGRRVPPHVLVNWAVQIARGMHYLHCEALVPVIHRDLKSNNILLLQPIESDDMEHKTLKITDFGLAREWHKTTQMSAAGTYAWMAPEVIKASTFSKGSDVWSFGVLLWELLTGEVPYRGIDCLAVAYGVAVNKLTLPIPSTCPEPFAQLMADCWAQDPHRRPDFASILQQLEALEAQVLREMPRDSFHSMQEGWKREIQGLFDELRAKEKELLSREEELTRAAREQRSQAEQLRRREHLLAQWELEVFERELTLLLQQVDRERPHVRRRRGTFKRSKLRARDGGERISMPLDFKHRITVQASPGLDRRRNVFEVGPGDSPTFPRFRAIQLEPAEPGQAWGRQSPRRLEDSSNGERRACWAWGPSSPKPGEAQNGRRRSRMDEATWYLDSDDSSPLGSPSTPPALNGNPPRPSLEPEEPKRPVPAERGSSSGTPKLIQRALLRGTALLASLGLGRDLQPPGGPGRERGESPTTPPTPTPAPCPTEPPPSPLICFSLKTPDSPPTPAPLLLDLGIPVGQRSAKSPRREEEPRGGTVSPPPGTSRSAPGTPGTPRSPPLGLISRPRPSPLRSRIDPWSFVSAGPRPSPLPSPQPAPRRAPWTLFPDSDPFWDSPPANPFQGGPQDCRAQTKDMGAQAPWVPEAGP
Cyclin-dependent kinase 16 (Homo sapiens), sequence (Q00536 whole entry): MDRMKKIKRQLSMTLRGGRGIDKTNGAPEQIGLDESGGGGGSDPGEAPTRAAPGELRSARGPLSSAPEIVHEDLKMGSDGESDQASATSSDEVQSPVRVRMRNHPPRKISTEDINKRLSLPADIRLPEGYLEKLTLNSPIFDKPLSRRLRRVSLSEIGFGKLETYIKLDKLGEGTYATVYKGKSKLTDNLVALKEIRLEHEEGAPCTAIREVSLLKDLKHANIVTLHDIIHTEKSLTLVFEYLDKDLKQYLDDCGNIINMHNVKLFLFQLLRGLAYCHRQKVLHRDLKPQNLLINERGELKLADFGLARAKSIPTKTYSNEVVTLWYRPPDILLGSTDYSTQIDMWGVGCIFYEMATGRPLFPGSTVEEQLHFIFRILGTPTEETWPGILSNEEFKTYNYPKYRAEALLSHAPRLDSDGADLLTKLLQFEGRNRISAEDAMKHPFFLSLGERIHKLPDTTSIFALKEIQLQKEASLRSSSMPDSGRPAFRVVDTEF
3-phosphoinositide-dependent protein kinase 1 (Homo sapiens), sequence (O15530 whole entry, looked up, the tested form may be a part): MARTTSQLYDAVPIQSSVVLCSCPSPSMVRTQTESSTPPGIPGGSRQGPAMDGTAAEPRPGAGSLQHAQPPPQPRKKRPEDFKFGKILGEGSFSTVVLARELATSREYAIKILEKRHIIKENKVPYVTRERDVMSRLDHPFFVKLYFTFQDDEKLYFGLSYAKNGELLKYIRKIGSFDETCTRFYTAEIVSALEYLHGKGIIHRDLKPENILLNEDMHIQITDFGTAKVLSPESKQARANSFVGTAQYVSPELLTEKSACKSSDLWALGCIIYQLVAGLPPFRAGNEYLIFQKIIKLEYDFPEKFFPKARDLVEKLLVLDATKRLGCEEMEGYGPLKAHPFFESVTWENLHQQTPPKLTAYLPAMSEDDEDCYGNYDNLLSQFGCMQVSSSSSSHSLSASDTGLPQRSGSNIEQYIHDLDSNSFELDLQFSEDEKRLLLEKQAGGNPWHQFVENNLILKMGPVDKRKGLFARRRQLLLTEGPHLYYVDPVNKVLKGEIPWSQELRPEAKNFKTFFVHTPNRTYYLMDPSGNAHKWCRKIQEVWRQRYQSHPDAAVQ
Interferon-induced, double-stranded RNA-activated protein kinase (Homo sapiens), sequence (P19525 whole entry): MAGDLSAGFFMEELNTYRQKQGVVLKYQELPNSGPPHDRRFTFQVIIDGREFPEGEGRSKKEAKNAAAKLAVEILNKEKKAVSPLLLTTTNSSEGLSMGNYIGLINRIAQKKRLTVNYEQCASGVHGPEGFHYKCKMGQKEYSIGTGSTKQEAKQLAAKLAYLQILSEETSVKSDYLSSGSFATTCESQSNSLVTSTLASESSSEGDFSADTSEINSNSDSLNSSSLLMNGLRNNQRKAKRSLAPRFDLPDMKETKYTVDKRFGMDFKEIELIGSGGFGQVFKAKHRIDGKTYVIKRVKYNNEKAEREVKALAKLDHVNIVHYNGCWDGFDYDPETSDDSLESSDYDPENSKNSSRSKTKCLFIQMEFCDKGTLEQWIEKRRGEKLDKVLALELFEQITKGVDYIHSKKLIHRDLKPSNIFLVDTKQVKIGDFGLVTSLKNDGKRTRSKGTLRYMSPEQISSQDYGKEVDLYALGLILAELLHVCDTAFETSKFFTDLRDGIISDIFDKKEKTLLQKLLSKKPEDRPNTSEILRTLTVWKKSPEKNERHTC
Mitogen-activated protein kinase kinase kinase 20, sequence (Q9NYL2 2-800 limits assumed): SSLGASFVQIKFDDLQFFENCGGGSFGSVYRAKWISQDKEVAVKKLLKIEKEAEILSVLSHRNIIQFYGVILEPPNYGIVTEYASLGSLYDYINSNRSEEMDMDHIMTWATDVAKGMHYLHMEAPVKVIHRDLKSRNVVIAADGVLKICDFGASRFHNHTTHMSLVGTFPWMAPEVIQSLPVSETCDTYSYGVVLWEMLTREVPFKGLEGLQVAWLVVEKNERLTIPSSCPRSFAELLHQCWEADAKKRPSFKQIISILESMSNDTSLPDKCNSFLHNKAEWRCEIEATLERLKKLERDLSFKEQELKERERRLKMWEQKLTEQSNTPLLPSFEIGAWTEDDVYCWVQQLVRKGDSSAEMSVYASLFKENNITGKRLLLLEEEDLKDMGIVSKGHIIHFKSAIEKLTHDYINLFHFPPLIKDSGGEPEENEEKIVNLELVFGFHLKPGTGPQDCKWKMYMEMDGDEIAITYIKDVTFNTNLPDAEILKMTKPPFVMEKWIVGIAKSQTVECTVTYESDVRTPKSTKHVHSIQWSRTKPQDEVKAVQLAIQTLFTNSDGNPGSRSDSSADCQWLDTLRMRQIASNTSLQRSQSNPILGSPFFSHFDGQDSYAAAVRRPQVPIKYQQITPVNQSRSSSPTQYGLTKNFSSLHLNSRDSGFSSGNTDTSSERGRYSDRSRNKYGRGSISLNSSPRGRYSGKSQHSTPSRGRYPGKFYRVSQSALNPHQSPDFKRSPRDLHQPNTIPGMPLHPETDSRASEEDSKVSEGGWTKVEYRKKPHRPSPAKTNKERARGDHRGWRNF

Take `CCN1CCN(Cc2ccc(NC(=O)c3ccc(C)c(/C=C/c4cnc5[nH]ccc5c4OC)c3)cc2C(F)(F)F)CC1`: the inhibition was 83.3% in test [1]; 32.1% in test [2]; -6.7% in test [3]; 10.5% in test [4]; 33.4% in test [5]; 4.4% in test [6].

As for `CNc1cc(Oc2cc(C(=O)Nc3cc(-n4cnc(C)c4)cc(C(F)(F)F)c3)ccc2C)ncn1`, the inhibition in test [7] is 79.7%; in test [8], 43.6%.

`CCN1CCN(Cc2ccc(NC(=O)c3ccc(C)c(Oc4ccnc5[nH]ccc45)c3)cc2C(F)(F)F)CC1`: the inhibition in test [1] was found to be 44.3%; in test [2], 72.6%; in test [3] it was 2.1%; in test [4], 0.3%; in test [5], 3.4%; in test [6], 15.4%.

In the case of `CNc1cc(Oc2cc(C(=O)Nc3cc(N4CCN(C)CC4)cc(C(F)(F)F)c3)ccc2C)ncn1`, the inhibition came out at 85.3% in test [7] and 31.8% in test [8].
